This is an account of results in US8779006B2, “Compositions and methods for treatment and prevention of osteoarthritis” (Nucitec S.A. de C.V., priority 2007, dated 2014).

Experiment [1] deals with patients with OA of the knee. In words: Example 2 randomized double-blind active-controlled study: WOMAC index. The experiment is classed as in vivo, human. How it is done: (§1) This was a 16-week, randomized, double-blind, active-controlled, parallel-group study. The study received Ethics Committee approval, was performed in accordance with the ICH Harmonized Guidelines for Good clinical Practice (GPC) and the Declaration of Helsinki. All patients provided written, informed consent before the start of the study.
(§2) 117 patients with OA of the knee (according to the American College of Rheumatology criteria) were included in the study. Patients were enrolled by public advertising and were studied at the San Jose Hospital in Queretaro, México. Entry criteria included: willingness to participate in the study, male and female patients aged at least 40 years of age with symptomatic evidence of OA in the knee for at least 1 year, radiographic evidence of Kellgren and Lawrence grade II to IV OA of the knee, and no intra-articular injection of corticosteroids within the last 3 months. Patients were excluded if they had: any history of adverse reaction to the study drugs, current pregnancy status, uncontrolled hypertension, active infection, undergone surgery/arthroscopy within three months, diagnosis of radiographic OA of Kellgren and Lawrence grade I.
(§3) Participants were assessed in-person during 6 visits conducted at monthly intervals. After giving written informed consent (visit #1), patients were screened and selected according to the predetermined criteria. Visit #2 was the baseline assessment. During this visit selected patients were assigned a unique patient identification number and randomized to receive 1 intra-articular monthly injection (10 mL) of Kondrium™, Kondrium™-F or methylprednisolone (80 mg) 1 month apart during the next 3 months (visits 3, 4 and 5). Visit #3, #4 and #5 served as a midpoint assessment and visit #6 was the final assessment corresponding to the end of the intervention period of the study. Kondrium™ is an aqueous formulation that contains 6.75% (w/v) sodium bicarbonate and 0.75% (w/v) calcium gluconate. Kondrium™-F is an aqueous formulation that contains 6.75% (w/v) sodium bicarbonate and 1.5% (w/v) calcium gluconate.
(§4) The primary efficacy variable was the change from the baseline to final assessment in the Western Ontario and McMastern University OA index (WOMAC subscale score for pain), and Lequesne's functional index.
(§5) Data analysis was performed using SPSS for Windows version 10.0. Baseline demographic variables and compliance were analyzed by means of the χ^2 test. A univariate analysis of variance (ANOVA) was used to determine whether the three treatment groups differed in mean values of change from a baseline in WOMAC and Lequesne's functional index. Treatment effect is shown as the main effect controlled by the baseline values. Pairwise comparisons between treatments were done with the LSD test. All statistical tests were performed at the 0.05 level of significance.

For experiment [2], the system named is patients with OA of the knee. Kind of experiment: Example 2 randomized double-blind active-controlled study: Lequesne's functional index. The experiment is classed as in vivo, human. The procedure: as §1, §2, §3, §4, §5
Where [3] appears, read: after 4 months of treatment, monthly intra-articular injection.

On to `C[C@H]1C[C@@H]2[C@H]([C@@H](O)C[C@@]3(C)[C@H]2CC[C@]3(O)C(=O)CO)[C@@]2(C)C=CC(=O)C=C12` [Methylprednisolone, methylprednisolone], for which, in experiment [1] (setting [3]), the “WOMAC Pain, change, mean” value is reported as −2.76; the “WOMAC Pain, final, mean” value is 2.57; the “WOMAC Physical functioning, change, mean” value is −7.34; the “WOMAC Physical functioning, final, mean” value was found to be 8.19. In experiment [1] (setting [3]), the “WOMAC Stiffness, change, mean” value was −2.42 and the “WOMAC Stiffness, final, mean” value turned out to be 2.77. Besides, in experiment [1] (before treatment), the “WOMAC Pain, baseline, mean” value turned out to be 4.72; the “WOMAC Physical functioning, baseline, mean” value turned out to be 14.47; the “WOMAC Stiffness, baseline, mean” value was 4.79. Moreover, in experiment [2] (setting [3]), the “Lequesne functional index Maximum Walking Distance, change, mean” value was −0.75; the “Lequesne functional index Maximum Walking Distance, final, mean” value is given as 2.90; the “Lequesne functional index Normal activities, change, mean” value is −2.80; the “Lequesne functional index Normal activities, final, mean” value is on record as 4.62. Moreover, in experiment [2] (setting [3]), the “Lequesne functional index Pain, change, mean” value is recorded as −1.96 and the “Lequesne functional index Pain, final, mean” value was determined as 2.86. Also, in experiment [2] (before treatment), the “Lequesne functional index Maximum Walking Distance, baseline, mean” value was 3.24; the “Lequesne functional index Normal activities, baseline, mean” value is 6.93; the “Lequesne functional index Pain, baseline, mean” value is given as 4.34. Further, the “mean change in the Lequesne's functional index” value in experiment [2] (end of study vs baseline) is −5.2.
